From patent US20230087118A1, “IMIDAZO[1,2-a][sequence] DERIVATIVES AND THEIR USE IN THE TREATMENT OF DISEASE” (priority 2019, published 2023)
Counter-ions that a name gives are not always drawn.

Molecular target: T1, IRAK4 (Homo sapiens, UniProt Q9NWZ3)
T1 sequence (Q9NWZ3 1-460): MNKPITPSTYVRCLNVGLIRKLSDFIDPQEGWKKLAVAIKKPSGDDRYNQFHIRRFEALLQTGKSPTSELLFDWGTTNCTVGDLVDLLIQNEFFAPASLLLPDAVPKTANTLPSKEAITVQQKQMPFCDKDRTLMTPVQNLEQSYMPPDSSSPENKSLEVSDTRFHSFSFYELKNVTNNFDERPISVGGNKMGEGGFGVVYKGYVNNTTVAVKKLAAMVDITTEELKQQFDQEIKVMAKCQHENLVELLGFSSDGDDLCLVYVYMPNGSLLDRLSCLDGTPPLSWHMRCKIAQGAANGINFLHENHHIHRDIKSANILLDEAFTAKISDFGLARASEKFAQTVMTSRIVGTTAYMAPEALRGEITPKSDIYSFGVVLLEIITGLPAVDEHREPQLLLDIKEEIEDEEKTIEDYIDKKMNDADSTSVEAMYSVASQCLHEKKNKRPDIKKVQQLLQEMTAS
Test: biochemical
Settings: not given

First: CC(C)Oc1nc(C(=O)Nc2cccn(C)c2=O)cn2cc(C34CCC(C)(CC3)OC4)nc12 [Example 427, 8-Isopropoxy-N-(1-methyl-2-oxo-1,2-dihydropyridin-3-yl)-2-(1-methyl-2-oxabicyclo[2.2.2]octan-4-yl)imidazo[1,2-a]pyrazine-6-carboxamide]
Second: CCOc1nc(C(=O)Nc2cccc(C(F)F)n2)cn2cc([C@]34CC[C@](C)(C3)OC4)nc12 (single isomer, unassigned) [Example 600]
The IC50 of the first is 1.7-fold lower: 0.0007 µM for the first, 0.0012 µM for the second. The first is the more potent here.

`COc1cc2nc(C3CCOCC3)cn2cc1C(=O)Nc1cccnc1OC(C)C` [Example 200] and `COc1cc2nc(C3CCOCC3)cn2cc1C(=O)Nc1cccnc1O` [Example 189] are within 1.5-fold of each other in IC50: 0.0115 µM for the first, 0.0165 µM for the second.

Compared with `Cn1ccc(NC(=O)c2cn3cc([C@]45CC[C@](C)(C4)OC5)nc3cc2OC2CCC2)n1` (single isomer, unassigned) [Example 611], `CCn1ccc(NC(=O)c2cn3cc(C45CCC(C)(C4)OC5)nc3cc2OC2CCC2)n1` (centres unmarked) [Example 533, 7-Cyclobutoxy-N-(1-ethyl-1H-pyrazol-3-yl)-2-(1-methyl-2-oxabicyclo[2.2.1]heptan-4-yl)imidazo[1,2-a]pyridine-6-carboxamide] is 2.8-fold higher in IC50: 0.0013 µM for the first, 0.0037 µM for the second.

Compared with `CC(C)Oc1cc2nc(C34CCC(C)(C3)OC4)cn2cc1C(=O)Nc1ccc(F)cn1` (centres unmarked) [Example 517, N-(5-fluoropyridin-2-yl)-7-isopropoxy-2-(1-methyl-2-oxabicyclo[2.2.1]heptan-4-yl)imidazo[1,2-a]pyridine-6-carboxamide], `Cc1cccc(NC(=O)c2cn3cc(C45COC(C)(C4)C5)nc3cc2OC(C)C)n1` [Example 259, 7-Isopropoxy-2-(1-methyl-2-oxabicyclo[2.1.1]hexan-4-yl)-N-(6-methylpyridin-2-yl)imidazo[1,2-a]pyridine-6-carboxamide] is 8.6-fold lower in IC50: 0.0043 µM for the first, 0.0005 µM for the second.

Going from `CCOc1cccc(NC(=O)c2cn3cc(C4CC4)nc3cc2OC(C)C)n1` [Example 481, 2-Cyclopropyl-N-(6-ethoxypyridin-2-yl)-7-isopropoxyimidazo[1,2-a]pyridine-6-carboxamide] to `CC(C)COc1cc2nc(C3CC3)cn2cc1C(=O)Nc1cccc(C(F)F)n1` [Example 466, 2-Cyclopropyl-N-(6-(difluoromethyl)pyridin-2-yl)-7-isobutoxyimidazo[1,2-a]pyridine-6-carboxamide], the IC50 falls from 0.0089 µM to 0.0057 µM (1.6-fold). The second is the more potent here.

Compared with `CC12CCC(c3cn4cc(C(=O)Nc5ccn(CC6CC6)n5)c(OC5CCC5)cc4n3)(CO1)C2` (centres unmarked) [Example 534, 7-Cyclobutoxy-N-(1-(cyclopropylmethyl)-1H-pyrazol-3-yl)-2-(1-methyl-2-oxabicyclo[2.2.1]heptan-4-yl)imidazo[1,2-a]pyridine-6-carboxamide], `CC12CC(c3cn4cc(C(=O)Nc5cccn(C(F)F)c5=O)c(OC5CCOCC5)cc4n3)(CO1)C2` [Example 454, N-(1-(difluoromethyl)-2-oxo-1,2-dihydropyridin-3-yl)-2-(1-methyl-2-oxabicyclo[2.1.1]hexan-4-yl)-7-((tetrahydro-2H-pyran-4-yl)oxy)imidazo[1,2-a]pyridine-6-carboxamide] is 5.6-fold lower in IC50: 0.0135 µM for the first, 0.0024 µM for the second. The second is the more potent here.

`CC(C)Oc1nc2nc(C34COC(C)(C3)C4)cn2cc1C(=O)Nc1cccc2scnc12` [Example 378, N-(benzo[d]thiazol-4-yl)-7-isopropoxy-2-(1-methyl-2-oxabicyclo[2.1.1]hexan-4-yl)imidazo[1,2-a]pyrimidine-6-carboxamide] and `CC(C)Oc1nc2nc(C34CCC(C)(C3)OC4)cn2cc1C(=O)Nc1cccc(C(F)F)n1` (centres unmarked) [Example 247] are the same in IC50: 0.0002 µM for the first, 0.0002 µM for the second.

`C[C@@]12CC[C@@](c3cn4cc(C(=O)Nc5cccc(C(F)F)n5)nc(OC5CCC5)c4n3)(CO1)C2` (single isomer, unassigned) [Example 626] and `C[C@@H](Oc1cc2nc(C34COC(C)(C3)C4)cn2cc1C(=O)Nc1cccc(C(F)F)n1)C1CC1` (single isomer, unassigned) [Example 655] are within 1.5-fold of each other in IC50: 0.0006 µM for the first, 0.0004 µM for the second.

Compared with `COc1cc2nc(C3CCOCC3)cn2cc1C(=O)Nc1cccn2nccc12` [Example 479, 7-Methoxy-N-(pyrazolo[1,5-a]pyridin-4-yl)-2-(tetrahydro-2H-pyran-4-yl)imidazo[1,2-a]pyridine-6-carboxamide], `COc1cc2nc(C3CCOCC3)cn2cc1C(=O)Nc1cnn(C)c1C1CC1` [Example 186] is 34-fold higher in IC50: 0.0092 µM for the first, 0.312 µM for the second.

First: CC(C)Oc1nc2nc(C34CCC(C)(CC3)CO4)cn2cc1C(=O)Nc1ccn(C)n1 [Example 566, 7-Isopropoxy-N-(1-methyl-1H-pyrazol-3-yl)-2-(4-methyl-2-oxabicyclo[2.2.2]octan-1-yl)imidazo[1,2-a]pyrimidine-6-carboxamide]
Second: CC(C)Oc1nc2nc(C34COC(C3)C4)cn2cc1C(=O)Nc1cnn2cccnc12 [Example 430, 2-(2-Oxabicyclo[2.1.1]hexan-4-yl)-7-isopropoxy-N-(pyrazolo[1,5-a]pyrimidin-3-yl)imidazo[1,2-a]pyrimidine-6-carboxamide]
The IC50 of the first is 3-fold lower: 0.0009 µM for the first, 0.0027 µM for the second.

First: COCCCc1cn2cc(C(=O)Nc3cccc(C(F)F)n3)c(OC(C)C)cc2n1 [Example 102, N-(6-(difluoromethyl)pyridin-2-yl)-7-isopropoxy-2-(3-methoxypropyl)imidazo[1,2-a]pyridine-6-carboxamide]
Second: CC(C)Oc1cc2nc(C34COC(C3)C4)cn2cc1C(=O)Nc1cccc(C(F)F)n1 [Example 544, 2-(2-Oxabicyclo[2.1.1]hexan-4-yl)-N-(6-(difluoromethyl)pyridin-2-yl)-7-isopropoxyimidazo[1,2-a]pyridine-6-carboxamide]
The IC50 of the first is 2-fold higher: 0.0004 µM for the first, 0.0002 µM for the second. The second is the more potent here.

Going from `COc1nc(C(=O)Nc2cccc(C(F)(F)F)n2)cn2cc(C[C@H]3CCOC3)nc12` (single isomer, unassigned) [Example 71] to `CC(C)Oc1cc2nc(C34COC(C)(C3)C4)cn2cc1C(=O)Nc1cccc(C(F)(F)F)n1` [Example 245], the IC50 falls from 0.0311 µM to 0.0003 µM (100-fold). The second is the more potent here.

First: COc1cccc(NC(=O)c2cn3cc(C(C)(F)F)nc3cc2OC(C)C)n1 [Example 101]
Second: C[C@H](Oc1cc2nc(C34COC(C)(C3)C4)cn2cc1C(=O)Nc1cccc(C(F)F)n1)C1CC1 (single isomer, unassigned) [Example 656]
The IC50 of the first is 88-fold higher: 0.0175 µM for the first, 0.0002 µM for the second. The second is the more potent here.

First: CCO[C@H]1C[C@@H](Oc2cc3nc(C4CCOCC4)cn3cc2C(=O)Nc2cccc(C(F)F)n2)C1 [Example 436, N-(6-(difluoromethyl)pyridin-2-yl)-7-((1s,3s)-3-ethoxycyclobutoxy)-2-(tetrahydro-2H-pyran-4-yl)imidazo[1,2-a]pyridine-6-carboxamide]
Second: CCn1cccc(NC(=O)c2cn3cc(C4CC4)nc3cc2OC(C)C)c1=O [Example 480, 2-Cyclopropyl-N-(1-ethyl-2-oxo-1,2-dihydropyridin-3-yl)-7-isopropoxyimidazo[1,2-a]pyridine-6-carboxamide]
The IC50 of the first is 9.4-fold lower: 0.0008 µM for the first, 0.0075 µM for the second.

Compared with `Cc1ccn2ncc(NC(=O)c3cn4cc(C56COC(C)(C5)C6)nc4cc3OC(C)C)c2n1` [Example 263, 7-Isopropoxy-2-(1-methyl-2-oxabicyclo[2.1.1]hexan-4-yl)-N-(5-methylpyrazolo[1,5-a]pyrimidin-3-yl)imidazo[1,2-a]pyridine-6-carboxamide], `CC(C)Oc1cc2nc(C34COC(C)(C3)C4)cn2cc1C(=O)Nc1ccnc2cccnc12` [Example 319, 7-Isopropoxy-2-(1-methyl-2-oxabicyclo[2.1.1]hexan-4-yl)-N-(1,5-naphthyridin-4-yl)imidazo[1,2-a]pyridine-6-carboxamide] is 8-fold higher in IC50: 0.0002 µM for the first, 0.0016 µM for the second. The first is the more potent here.

Same assay, conditions: IRAK4 Biochemical Assay (1 mM ATP, 2 h) IC50 (μM), 1 mM ATP, 2 h, 100 pM IRAK4

Compared with `CCOc1cc2nc(C3CCOCC3)cn2cc1C(=O)Nc1cccc(C(F)CF)n1` (centres unmarked) [Example 392, N-(6-(1,2-difluoroethyl)pyridin-2-yl)-7-ethoxy-2-(tetrahydro-2H-pyran-4-yl)imidazo[1,2-a]pyridine-6-carboxamide hydrochloride], `O=C(Nc1cccc(C(F)F)n1)c1cc(OC(F)F)c2nc(C3CCOCC3)cn2c1` [Example 63, 8-(Difluoromethoxy)-N-(6-(difluoromethyl)pyridin-2-yl)-2-(tetrahydro-2H-pyran-4-yl)imidazo[1,2-a]pyridine-6-carboxamide trifluoroacetate] is 4.3-fold higher in IC50: 0.0018 µM for the first, 0.0078 µM for the second.

Going from `COc1cccc(NC(=O)c2cn3cc([C@@]45COC[C@@H]4C5)nc3cc2OC)n1` [Example 30] to `COc1cccc(NC(=O)c2cn3cc(C4C5CCOCC54)nc3cc2OC)n1` (centres unmarked) [Example 25], the IC50 falls from 0.0735 µM to 0.0031 µM (24-fold).

Compared with `COc1cc2nc(C34CC(OC)(C3)C4)cn2cc1C(=O)Nc1ccccn1` [Example 2], `CC12CC(c3cn4cc(C(=O)Nc5cccc(C(F)F)n5)c(OC(F)F)cc4n3)(CO1)C2` [Example 333, 7-(Difluoromethoxy)-N-(6-(difluoromethyl)pyridin-2-yl)-2-(1-methyl-2-oxabicyclo[2.1.1]hexan-4-yl)imidazo[1,2-a]pyridine-6-carboxamide trifluoroacetate] is 11-fold lower in IC50: 0.0586 µM for the first, 0.0052 µM for the second.

First: CN1CCC(Oc2cc3nc(C4CC4)cn3cc2C(=O)Nc2cccc(C(F)F)n2)C1=O (centres unmarked) [Example 469, 2-Cyclopropyl-N-(6-(difluoromethyl)pyridin-2-yl)-7-((1-methyl-2-oxopyrrolidin-3-yl)oxy)imidazo[1,2-a]pyridine-6-carboxamide]
Second: CC(C)Oc1nc2nc(C34COC(C)(C3)C4)cn2cc1C(=O)Nc1cccc2c1OCC2 [Example 377, N-(2,3-dihydrobenzofuran-7-yl)-7-isopropoxy-2-(1-methyl-2-oxabicyclo[2.1.1]hexan-4-yl)imidazo[1,2-a]pyrimidine-6-carboxamide trifluoroacetate]
The IC50 of the first is 140-fold higher: 0.0412 µM for the first, 0.0003 µM for the second. The second is the more potent here.
